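GI50 = concentration required for 50% inhibition of growth. TGI marks complete inhibition of growth.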
Experiments:
Assay in all cases: inhibition of tumour cell growth, NCI panel, 384-well format
A549 NSCLC = tested on: A549 NSCLC
BT-549 breast = tested on: BT-549 breast
CAKI-1 renal = tested on: CAKI-1 renal
COLO 205 colon = tested on: COLO 205 colon
HL-60(TB) leukemia = tested on: HL-60(TB) leukemia
HOP-62 NSCLC = tested on: HOP-62 NSCLC
HOP-92 NSCLC = tested on: HOP-92 NSCLC
HS 578T breast = tested on: HS 578T breast
HT29 colon = tested on: HT29 colon
KM12 colon = tested on: KM12 colon
M14 melanoma = tested on: M14 melanoma
MALME-3M melanoma = tested on: MALME-3M melanoma
MCF7 breast = tested on: MCF7 breast
MDA-MB-231 breast = tested on: MDA-MB-231 breast
NCI-H226 lung = tested on: NCI-H226 lung
NCI-H23 lung = tested on: NCI-H23 lung
NCI-H322M lung = tested on: NCI-H322M lung
OVCAR-8 ovarian = tested on: OVCAR-8 ovarian
RPMI-8226 leukemia = tested on: RPMI-8226 leukemia
RXF 393 renal = tested on: RXF 393 renal
SF-268 CNS = tested on: SF-268 CNS
SF-295 CNS = tested on: SF-295 CNS
SF-539 CNS = tested on: SF-539 CNS
SK-MEL-28 melanoma = tested on: SK-MEL-28 melanoma
SNB-75 CNS = tested on: SNB-75 CNS
SR leukemia = tested on: SR leukemia
SW-620 colon = tested on: SW-620 colon

Cc1cc(Nc2ncc(F)c(N[C@H]3[C@@H](C(N)=O)[C@@H]4C=C[C@H]3C4)n2)ccc1N1CCN(C)CC1
GI50 (A549 NSCLC): 20.1 nM
TGI (A549 NSCLC): 3250 nM
GI50 (BT-549 breast): 14.6 nM
TGI (BT-549 breast): 51.5 nM
GI50 (CAKI-1 renal): < 10 nM
TGI (CAKI-1 renal): 1200 nM
GI50 (COLO 205 colon): < 10 nM
TGI (COLO 205 colon): < 10 nM
GI50 (HL-60(TB) leukemia): < 10 nM
TGI (HL-60(TB) leukemia): 1030 nM
GI50 (HOP-62 NSCLC): 25 nM
TGI (HOP-62 NSCLC): 237 nM
GI50 (HOP-92 NSCLC): 15.6 nM
TGI (HOP-92 NSCLC): 184 nM
GI50 (HS 578T breast): 12.6 nM
TGI (HS 578T breast): 95.6 nM
GI50 (HT29 colon): 44.4 nM
TGI (HT29 colon): 1140 nM
GI50 (KM12 colon): 173 nM
TGI (KM12 colon): 1500 nM
GI50 (M14 melanoma): < 10 nM
TGI (M14 melanoma): 2100 nM
GI50 (MALME-3M melanoma): < 10 nM
TGI (MALME-3M melanoma): 1340 nM
GI50 (MCF7 breast): 436 nM
TGI (MCF7 breast): 2140 nM
GI50 (MDA-MB-231 breast): 26 nM
TGI (MDA-MB-231 breast): 1570 nM
GI50 (NCI-H226 lung): 25.7 nM
TGI (NCI-H226 lung): 661 nM
GI50 (NCI-H23 lung): 35.9 nM
TGI (NCI-H23 lung): 1160 nM
GI50 (NCI-H322M lung): 766 nM
TGI (NCI-H322M lung): 2260 nM
GI50 (OVCAR-8 ovarian): 88 nM
TGI (OVCAR-8 ovarian): 385 nM
GI50 (RPMI-8226 leukemia): < 10 nM
TGI (RPMI-8226 leukemia): < 10 nM
GI50 (RXF 393 renal): 30.5 nM
TGI (RXF 393 renal): 294 nM
GI50 (SF-268 CNS): 73.5 nM
TGI (SF-268 CNS): 866 nM
GI50 (SF-295 CNS): 21.8 nM
TGI (SF-295 CNS): 276 nM
GI50 (SF-539 CNS): 24.8 nM
TGI (SF-539 CNS): 138 nM
GI50 (SK-MEL-28 melanoma): 1210 nM
TGI (SK-MEL-28 melanoma): 2550 nM
GI50 (SNB-75 CNS): 15.2 nM
TGI (SNB-75 CNS): 119 nM
GI50 (SR leukemia): < 10 nM
TGI (SR leukemia): < 10 nM
GI50 (SW-620 colon): 26.2 nM
TGI (SW-620 colon): 1500 nM
